Here are results for one substance from patent US5622933A, “Multiple branch peptide constructions for use against HIV” (priority 1993, dated 1997).

In this assay the test system is Peripheral blood lymphocytes (PBL). As to the kind of experiment: PBL antigen and mitogen induced proliferation ([3H]thymidine incorporation). It counts as cell-based, human. As to conditions: MBPCs 5×10^-6 M. As for the experimental part: Peripheral blood lymphocytes (PBL) from 3 healthy HIV sero-negative donors were isolated from heparinized blood by the Ficoll-Hypaque technique. The culture medium was RPMI 1640 supplemented with 1% glutamine, 1% antibiotics and 10% heat inactivated fetal calf serum. Cells (10^5) were incubated in the presence of MBPCs (5×10^-6 M) with or without antigen (candidine, PPD) or mitogen (PHA). Antigen or mitogen treated cells were pulsed for eight hours with […] of [3H] thymidine. Then cells were harvested and [3H] thymidine incorporation in DNA was counted. […]
(In general: Incorporation of labelled thymidine or its analogues reports DNA synthesis.)

Ends that are not written are not given here.

With “(RKSIHIGPGRAFYT)4 -(K)2 -K-βA-OH (also: four copies on lysine core (K)2-K-βA-OH) [MBPC.5, tetradecapeptide MBPC]”, the “[3H] Thymidine Incorporation” value is 80000 cpm (Donor 1, Cand1); 85000 cpm (Donor 1, Cand2); 1300 cpm (Donor 1, PPD1); 2100 cpm (Donor 1, PPD2); 15000 cpm (Donor 2, Cand1); 9000 cpm (Donor 2, Cand2). Besides, the “[3H] Thymidine Incorporation” value is 115000 cpm (Donor 2, PHA1); 111000 cpm (Donor 2, PHA2); 24000 cpm (Donor 2, PPD1); 26000 cpm (Donor 2, PPD2); 3700 cpm (Donor 3, Cand1); 1100 cpm (Donor 3, Cand2). Further, the “[3H] Thymidine Incorporation” value is, setting by setting: (Donor 3, PHA1) 228000 cpm; (Donor 3, PHA2) 188000 cpm; (Donor 3, PPD1) 4000 cpm; (Donor 3, PPD2) 2400 cpm.
